According to patent US7713986B2, “Compounds and methods for treatment of chemotherapy-induced anemia” (priority 2006, dated 2010):

Legend:
[1] = Body weight of H-460 tumor-bearing nude mice given chemotherapeutic agent with or without Compound A; format: in vivo, female Harlan nude mice
Experimental: To examine the effects of compounds and methods of the present invention on weight loss associated with chemotherapeutic agents, the following study was performed. This experiment was carried out essentially as described above in Example 2. […] Cages, food, and bedding were autoclaved. Animal diets were obtained from Harlan Teklad (Madison, Wis.).
Body weights were monitored over time for individual animals. Changes in individual animal body weights over time are shown in FIGS. 3-8, and are presented as percent of initial body weight (treatment day 1), which was set at 100%.

[2] = system: animal model of chemotherapy-induced anemia; format: in vivo, Sprague Dawley male rats
Experimental: Fifteen Sprague Dawley male rats (280-300 g) were obtained from Charles River Laboratories. On day 0, rats were treated by intraperitoneal (i.p.) injection with a single dose of saline (control; n=3) at 8 ml/kg, or Cisplatin (CP; Bedford Laboratories, Bedford Ohio) at either 7 mg/kg (7 ml/kg; n=6) or 10 mg/kg (10 ml/kg; n=6). Blood samples (0.2 ml) were collected on days 5, 9, and 16 as follows. Animals were anesthetized with isoflurane and 0.2 ml of blood was collected from the tail vein into a MICROTAINER EDTA-2K tube (Becton-Dickinson). Blood samples were processed for hematocrit as described above to determine the degree of anemia produced in each animal.
Beginning on day 19 of the study, one half of each cisplatin-treated group (n=3×2) and all of the control group were treated by oral gavage once per day for 5 consecutive days with a 2 ml/kg volume of 0.5% CMC (Sigma-Aldrich). […] Blood samples (0.5 ml) were collected as described above immediately prior to treatment and 4 days after treatment initiation. Blood samples were analyzed for CBC and reticulocyte counts as described above. On day 9 after initiation of oral treatment, a blood sample (0.1 ml) was collected and processed for hematocrit as described above.

[3] = system: female Harlan nude mice implanted with H460 tumor cells; assay: H-460 tumor-bearing nude mice given chemotherapeutic agent with or without Compound A: premature morbidity and hematocrit
Experimental: To examine the effect of methods and compounds of the present invention on treatment of chemotherapy-induced anemia, the following study was performed. The human H-460 lung cancer cell line used was obtained from the National Cancer Institute. (Brower et al., (1986) Cancer Res 46:798-806.) Animals were maintained in a HEPA-filtered environment during the experimental period. Cages, food, and bedding were autoclaved. Animal diets were obtained from Harlan Teklad (Madison, Wis.). Hydrochloric acid, 0.15% (v/v), was added to the drinking water.
Compounds of the invention were pre-formulated in an aqueous vehicle consisting of 0.1% (w/w) Polysorbate 80 (JT Baker) and 0.5% (w/w) high viscosity carboxymethyl cellulose sodium (Spectrum) to achieve a final 10 ml/kg dosing (oral gavage).
A stock tumor was established by subcutaneously injecting a cell suspension into nude mice. The resulting tumor was maintained in nude mice subcutaneously as tumor stock prior to use. Tumor implantation was performed when the stock tumors were in log phase of growth. Before implantation, tumor tissue was harvested from stock mice and placed in RPMI-1640 medium. Necrotic tissues were dissected away and viable tissues were cut into 1-2 mm^2 pieces. In these experiments, 1×10^7H460 tumor cells were implanted subcutaneously to the flanks of female Harlan nude mice.
Treatment (administration of compounds of the present invention) was initiated when the inoculated tumors reached approximately 100 mm^3, and continued for four weeks.
These studies followed the guidelines of the Tumor Growth Delay (TGD) type, using a protocol that required individual animals to be humanely euthanized after reaching a set endpoint of tumor volume greater than or equal to 2 cc. At this endpoint, blood was also sampled and hematocrit (HCT) was determined.
These two chemotherapeutic are representative of two broad classes of conventional anti-tumor therapeutics: microtubule poisons (Paclitaxcel); and DNA-directed agents, including the sub-classification of DNA alkylating agents (Carboplatin). […]

SMILES: O=C(O)CNC(=O)c1nc(Cl)c2ccccc2c1O [Compound A, N—((1-chloro-4-hydroxy-isoquinoline-3-carbonyl)-amino)-acetic acid]
- body weight change at end of study ([1]; mouse, in vivo): overall net weight gain
- body weights during the time course of the study ([1]; mouse, in vivo, 60 mg/kg): increased gradually
- hematocrit in Cisplatin-treated animals ([2]; 4 days after initiating treatment with Compound A, oral gavage once per day for 5 days (FIG. 1A)): increased hematocrit
- percent circulating reticulocytes ([2]; Cisplatin-treated animals, compared to those without Compound A (FIG. 1B)): increased
- hematocrit levels versus non-treated counterparts ([2]; Cisplatin-treated rats, day 9 post-treatment (FIG. 1A)): significantly higher

SMILES: CC(=O)O[C@H]1C(=O)[C@@]2(C)[C@H]([C@H](OC(=O)c3ccccc3)[C@]3(O)C[C@H](OC(=O)[C@H](O)[C@@H](NC(=O)c4ccccc4)c4ccccc4)C(C)=C1C3(C)C)[C@]1(OC(C)=O)CO[C@@H]1C[C@@H]2O [Paclitaxel]
- animals that ended the study at a body weight below that at the start ([1]; mouse, in vivo): 2 of 10
- body weight pattern compared to non-treated vehicle control animals ([1]; mouse, in vivo): pattern of weight loss

SMILES: N.N.O=C([O-])C1(C(=O)[O-])CCC1.[Pt+2] [Carboplatin]
- body weight pattern compared to non-treated vehicle control animals ([1]; chemotherapeutic agent alone (FIG. 5, FIG. 7)): pattern of weight loss
- animals with more than a 10% weight gain at any time during the study ([1]; number of animals of 10): 3 of 10
- animals that ended the study at a body weight below that at the start ([1]; number of animals of 10 per group): 7 of 10
- hematocrit over time ([3]; Carboplatin alone (closed circles in FIG. 2)): significant decrease
- # animals morbid prematurely ([3]; Cmpd A 60 mg/kg p.o., Carboplatin 120 mg/kg i.p. Q7d): 6/10
- # animals reaching study endpoint ([3]; Cmpd A 60 mg/kg p.o., Carboplatin 120 mg/kg i.p. Q7d, endpoint tumor volume >= 2 cc): 4/10
